Source: patent US20180161291A1, “EXTENDED RELEASE UREA COMPOSITIONS” (Kato Pharmaceuticals, Inc., priority 2015, published 2018)

Experiments:
[1] = system: non sighted patients with optic nerve damage caused by trauma and/or glaucoma; assay: Treatment of neuropathies, double masked placebo controlled dose escalation study; assay type: in vivo, human
Method: In accordance with the present disclosure, urea, thiourea, guanidine and possibly the other compounds of General Formula I above are effective to treat neuropathies 5 (e.g., disorders or damage to nerves). In this example, 33 non sighted patients with optic nerve damage caused by trauma and/or glaucoma, with visual acuity of light perception or no light perception were administered a urea-containing formulation, as disclosed herein. The study was a double masked placebo controlled, randomized, dose escalation study conducted with 33 human patients with optic nerve damage. Patients were randomized into 5 groups, Group 1 of 5 patients. Group 2 of 4 patients, Group 3 of 8 patients, Group 4 of 8 patients and Group 5 of 8 patients. Each patient received a single intravitreal injection of 50 UI of an aqueous treatment solution, as follows:
In Six patients the vision improved from No light perception to light perception, in 2 patients the vision improved from light perception to count fingers at 12 inches, in 2 patients the vision improved from no light perception to 20 20/400 and 20/800 vision and in 2 patients the vision improved from light perception to 20/600 and 20/800 vision. No patients in the placebo group reported any improvement in best corrected visual acuity as measured by ETDRS charts.

[2] = system: human patients with single or multiple retinal tears; assay: Treatment of retinal tears: intravitreal urea 3 days before pneumatic Retinopexy; assay type: in vivo
Method: All patients received pneumatic Retinopexy treatment 3 days after intravitreal injection of 1.5 mg of urea in 50 μl of aqueous solution prepared according to the formulation set forth in Table II above. […] Within 3-7 days after urea injection, 11/12 patients had developed PVD, only 1/12 patients had not developed PVD. Within 90 days of the urea injection that one patient also developed PVD.
Within 3 days of treatment 9/12 patients had complete retinal reattachment and macular attachment, and within 7 days all 12 patients had complete retinal reattachment and macular attachment. […]
(Tornambe, P. E. et. al. Opthalmology, 1989; 96: 772-783).

[3] = system: non-diabetic patients with symptomatic VMA; assay: U.S. Phase Ib study: induction of PVD by multiple intravitreal injections of urea; assay type: in vivo, human; conditions: preliminary
Method: (§1) A study was conducted to examine effect of multiple intravitreal injections of small molecule formulation of urea on induction of posterior vitreous detachment (PVD).
(§2) Formulation: Sterile lyophilized Urea, USP-NF in buffered isotonic saline for intravitreal injections. Injectable: Reconstituted with 300 μL sterile water for injection. Dosage form: 100 μL dose contains 18 mg Urea, USP-NF (18% w/v) in glass vial. Storage: room temperature. Stability: stable >24 mo for lyophilized form. […] PVD rate: 25% targeted efficacy.
(§3) U.S. study design: 2:1 randomized, Phase Ib, dose ranging & safety study. Patient population: 30 non-diabetic patients with symptomatic VMA. Treatment: high dose arm (Day 0: 100 μL 18% w/v injection; Day 30: 100 μL 18% w/v injection for all unresolved patients); low dose arm (Day 0: 100 μL 9% w/v injection; Day 30: 100 μL 9% w/v injection for all unresolved patients). Follow-up: days 0, 2, 8, 15, 30, 60, 90 and 180.

[4] = system: human patients with retinitis pigmentosa; assay: Treatment of retinitis pigmentosa, double masked placebo controlled dose escalation study; assay type: in vivo
Method: A double masked placebo controlled, randomized, dose escalation study was done in 32 human patients with retinitis pigmentosa. All patients were treated with a single intravitreal injection of 50 μl of a urea-containing formulation. Three groups of patients received different concentrations of urea. One group received a formulation containing 1.5% urea, 0.9% sodium chloride, and sterile water for injection. A second group received an identical formulation except the formulation contained 3.0% urea. A third group received an identical formulation except the formulation contained 6.0% urea. A placebo group received 50 μl of 0.9% sodium chloride.
Forty-seven percent of the patient reported an increase of at least 3 lines of best corrected visual acuity measured by ETDRS charts, whereas, only 14% of the placebo patients reported an increase of at least 3 lines of best corrected visual acuity measured by ETDRS charts.
There was no dramatic increase in the visual field of the placebo control patients.

[5] = system: patients with nonproliferative diabetic retinopathy; assay: Treatment of diabetic retinopathy; assay type: in vivo, human; conditions: within 2-4 weeks after single intravitreal injection of 3% urea, 0.9% sodium chloride; 69 patients
Excerpt: Sixty-nine patients with nonproliferative diabetic retinopathy were each administered a single intravitreal injection of 50 UI of a urea formulation containing 3% urea, 0.9% sodium chloride, and sterile water for injection.
The vitreous liquefaction and vitreous collapse in non-proliferative diabetic retinopathy patients would inhibit the growth and proliferation of the blood vessels, and thus inhibit the progression of diabetic retinopathy. All 69 (of the) patients were followed for six months following the procedure.

[6] = system: non-diabetic patients with symptomatic VMA; assay: Multiple intravitreal injections of urea: overall (pooled) results; assay type: in vivo, human
Method: as §1, §2, §3
(§4) Ex-U.S. study design: 3:1 randomized, controlled, Phase Ib, POC & safety study. Patient population: non-diabetic patients with symptomatic VMA. Treatment arm: 20 patients. Control arm: 5 patients. Treatment: high dose arm (Day 0: 100 μL 36% w/v injection; Day 30: 100 μL 36% w/v injection for all unresolved patients); low dose arm (Day 0: 100 μL 18% w/v injection; Day 30: 100 μL 18% w/v injection for all unresolved patients). Follow-up: days 0, 2, 8, 15, 30, 45, 60 and 90.
FIGS. 10 and 11 show the preliminary US and ex-US results, respectively. For the US study, 4 of 10 patients in high-dose group met primary endpoint, 1 of 7 patients in low-dose group met primary endpoint. For the ex-US study, 5 of 11 patients in high-dose group met primary endpoint, 3 of 6 patients in low-dose group met primary endpoint.

[7] = cited from earlier work
[8] = system: patients with long standing optic nerve damage related to optic nerve tumors; assay: Treatment of optic nerve damage related to optic nerve tumors; assay type: in vivo, human
Method: In another study, three patients with long standing (6 months or longer) optic nerve damage related to optic nerve tumors were treated with a single intravitreal injection of 100 μl of a 6% urea containing formulation. All three patient treated reported a significant improvement in visual acuity after treatment. The patients' visual acuity improved from an average of Count Fingers at 12 inches to 20/200.

[9] = system: human patients with diabetes-related nonclearing vitreous hemorrhage; assay: Treatment of vitreous hemorrhage; assay type: in vivo; conditions: within 2 to 4 weeks after single intravitreal injection of 6% urea, 0.9% sodium chloride; seven patients
Method: The formulations and treatments disclosed herein are also effective to treat vitreous hemorrhage. In this example, seven human patients were treated for diabetes-related nonclearing vitreous hemorrhage. Each patient received a single intravitreal injection of 1001l of a formulation containing urea. The formulation used in this example contained 6% urea, 0.9% sodium chloride, and sterile water for injection (qs 100%).

[10] = system: non-diabetic patients with symptomatic VMA; assay: Ex-U.S. Phase Ib study: induction of PVD by multiple intravitreal injections of urea; assay type: in vivo, human; conditions: preliminary
Method: as §1, §2, §4

[11] = Storage stability of lyophilized urea formulation; assay type: physicochemical; conditions: storage at room temperature
Method: as §2

[12] = system: human patients requiring pars plana vitrectomy; assay: Treatment as adjunct to vitrectomy; assay type: in vivo
Method: In this example, five human patients requiring pars plana vitrectomy for various indications were treated one week prior to vitrectomy with a single intravitreal injection of 100 μl of a urea in aqueous solution. The formulation contained 6% urea, 0.9% sodium chloride, and sterile water for injection (qs 100%). All patients underwent routine vitrectomies 8 to 10 days after the urea injection. The minimum waiting time between the urea injection and the vitrectomy procedure is about 1 day to 3 days.
No vitrectomy cutter was used.

[13] = system: patient with stage 3 idiopathic macular hole; assay: Treatment of idiopathic macular hole: intravitreal urea followed by expandable gas; assay type: in vivo, human; conditions: for visual acuity: baseline 20/400; for size of the macular hole: baseline 450 μm
Method: The macular defect was classified as a stage 3 macular hole, and the patient's visual acuity was recorded at 20/400 at a baseline time point prior to urea treatment. […] Seven days after the intravitreal urea injection the patient was administered an intravitreal injection of 0.3 ml of expandable gas (C3 F8).
One week after administration of the gas, the size of the macular hole had decreased from 450 μm to a smaller size of 200 μm and the patient's vision had improved from a baseline visual acuity of 20/400 to 20/80. Two weeks post treatment the size of the macular hole had decreased from 450 μm to a smaller size of 90 μm and the patient's vision had improved from a baseline visual Acuity of 20/400 to 20170. Four weeks post treatment the size of the macular hole had decreased from 450 μm to a smaller size of 60 μm and the patient's vision had improved from a baseline visual acuity of 20/400 to 20/60.

[14] = system: vitreous and retina of injected eyes; conditions: cited from earlier work
[15] = one week after administration of the gas

For `NC(N)=O` [urea], the “patients whose vision improved from No light perception to light perception” value ([1]; in vivo) was “Six”, the “patients whose vision improved from light perception to 20/600 and 20/800 vision” value ([1]; in vivo) was 2 patients and the “patients whose vision improved from light perception to count fingers at 12 inches” value ([1]; in vivo) was 2 patients. For the same compound, the “patients whose vision improved from no light perception to 20/400 and 20/800 vision” value ([1]; in vivo) was 2 patients, the “patients with an increase of best corrected visual acuity (ETDRS charts)” value ([1]; single intravitreal injection of 0.2%, 1.5%, 3.0% or 6.0% urea, no improvement in placebo group) was “Forty-three” and the “adverse effects of the intravitreal injection, ophthalmoscopic and biomicroscopic examination” value ([2]; 1.5 mg urea in 50 μl, Table II formulation, 12 patients) was “no adverse effects”. The “patients with improvement of more than 2 lines of visual acuity (11 letters)” value ([2]; 6 months post Retinopexy) was 64%, the “occurrence of new retinal tears with associated retinal detachment” value ([2]; follow up 90 days) was “none” and the “patients with improvement of more than 2 lines of visual acuity (11 letters)” value ([2]; time not printed in the sentence (1 month post Retinopexy by context)) was 64%. The “patients who developed PVD” value ([2]; within 3-7 days after urea injection) was 11/12, the “patients with complete retinal reattachment and macular attachment” value ([2]; within 3 days of treatment) was 9/12 and the “patients with complete retinal reattachment and macular attachment” value ([2]; within 7 days) was 12 patients. The “patients who met primary endpoint” value ([3]; high-dose group, 100 μL 18% w/v) was 4 of 10, the “patients who met primary endpoint” value ([3]; low-dose group, 100 μL 9% w/v) was 1 of 7 and the “patients with an increase of at least 3 lines of best corrected visual acuity (ETDRS charts)” value ([4]; single intravitreal 50 μl of 1.5%, 3.0% or 6.0% urea, placebo 14%) was “Forty-seven”. The “average improvement in the patient's visual field” value ([4]; urea-treated patients) was 10 degrees, the “patients with complete vitreous liquefaction and collapse” value [5] was 69 patients and the efficacy ([6]; after a second injection) was 40%. The “% resolution of VMA” value ([6]; non-ERM) was 44%, the “safety: drug related adverse effects” value ([6]; up to 4 injections) was “no drug related adverse effects” and the efficacy ([6]; with one injection) was 30%. The pH of solution ([7]; 10% water solution) was 7.2, the “stability of the solid” value ([7]; stored under dry conditions) was “stable at room temperature” and the “average visual acuity after treatment” value ([8]; from an average of Count Fingers at 12 inches) was 20/200. For the same compound, the “patients reporting a significant improvement in visual acuity after treatment” value ([8]; single intravitreal 100 μl of 6% urea, three patients) was “All three”, the “patients with clearance of vitreous hemorrhage sufficient to treat the retina with photocoagulation” value [9] was “All seven” and the “patients who met primary endpoint” value ([10]; high-dose group, 100 μL 36% w/v) was 5 of 11. The “patients who met primary endpoint” value ([10]; low-dose group, 100 μL 18% w/v) was 3 of 6, the “stability of lyophilized form” value [11] was greater than 24 mo and the “decrease in surgical time relative to patients who did not receive urea” value ([12]; 6% urea, 100 μl intravitreal one week prior to vitrectomy) was 70%. The “vitreous status at the time of vitrectomy” value ([12]; by one week after single intravitreal 100 μl of 6% urea, 0.9% sodium chloride, five patients) was “complete vitreous liquefaction and collapse”, the “adverse effects of the intravitreal injection, ophthalmoscopic and biomicroscopic examination” value ([13]; 1.5 mg urea, Table III formulation) was “no adverse effects” and the visual acuity ([13]; four weeks post treatment) was 20/60. The “size of the macular hole” value ([13]; four weeks post treatment) was 60 μm, the visual acuity [13, 15] was 20/80 and the “size of the macular hole” value [13, 15] was 200 μm. For the same compound, the “time to complete Posterior Vitreous Detachment (PVD)” value ([13]; single intravitreal injection 1.5 mg urea, Table III formulation, one patient) was no more than 7 days and the “size of the macular hole” value ([13]; two weeks post treatment) was 90 μm.

In the case of Collagenase, the “reported adverse effect on the injected eye” value ([14]; dispase: 15 minutes after injection) is given as “disrupt the outer layers of the retina” and the “reported effect on the vitreous” value ([14]; in vivo) is given as “liquefy the vitreous”.
